In patent US20200276150A1, “PARENTERAL FORMULATIONS OF MACROLIDE ANTIBIOTICS” (Tetard, Inc., priority 2010, published 2020):

Experiment: HPLC assay and impurity levels, autoclaved and non-autoclaved samples (Example 7)
Type: physicochemical
Conditions: standard, no condition given
Method: EXAMPLE 7. Characterization of Unbuffered Formulation C Solutions with Nitrogen […] and with the Inclusion of an Antioxidant with or without a Chelating Agent. Development studies were conducted using Formulation C, Example C, and its corresponding placebo formulation. The table below details the composition of Formulation C active formulation and corresponding placebo. The solutions above were prepared by first dissolving the stabilizers in the vehicle (60 mM Tartaric acid) which was pre-prepared in nitrogen sparged water. Once dissolved, the CEM-101 API was then added slowly and allowed to mix until a complete solution was achieved. Formulations prepared were then filled into vials, crimped with an aluminium cap containing a PTFE septum and then autoclaved. Each vial was nitrogen purged prior to crimping. HPLC analyses were performed on both autoclaved and non-autoclaved samples. Refer to results in the table below for summary data on assay and impurities.

CC[C@H]1OC(=O)[C@@](C)(F)C(=O)[C@H](C)[C@@H](O[C@@H]2O[C@H](C)C[C@H](N(C)C)[C@H]2O)[C@@](C)(OC)C[C@@H](C)C(=O)[C@H](C)[C@H]2N(CCCCn3cc(-c4cccc(N)c4)nn3)C(=O)O[C@]12C [STD 0.5 mg/mL]
Total Impurities: 1.867
